Laboratory results as given in patent publication US20240016811A1, “CANCER THERAPY USING A COMBINATION OF CDK7 INHIBITOR WITH AN ANTI-MICROTUBULE AGENT” (Aurigene Oncology Limited, priority 2020, published 2024).
Several values for one entry are separate records, joined by “and”; a condition that tells them apart may be missing. Equal values may be shown once.

Tested on: DU 145 cells
Assay: Proliferation of DU 145 cells after 3-day treatment, measured using CTG reagent; single agents and combination, synergy analysed with CompuSyn
Assay type: cell-based
Details: for inhibition of proliferation in DU145 cells: single agents, conclusion in words
Description: The effect of 3-day compound treatment on cell proliferation was measured using CTG reagent.

`CC(C)[C@H](C(=O)Nc1cc(C2CC2)[nH]n1)c1cccc(-c2ccc(NC(=O)/C=C/CN3CCOCC3)nc2)c1` (single isomer, unassigned) [Compound-44A] was tested, and the “% inhibition in proliferation” value (Compound-44A 0.00209 nM, Day-3, replicate columns) was 0.7% and −2.6% and 2.1%, the “% inhibition in proliferation” value (Compound-44A 0.00627 nM, Day-3, replicate columns) was −1.3% and 3.7% and −0.3% and the “% inhibition in proliferation” value (Compound-44A 0.01882 nM, Day-3, replicate columns) was −4.7% and 2.1% and −5.1%. The “% inhibition in proliferation” value (Compound-44A 0.0565 nM, Day-3, replicate columns) was −1.2% and 8.1% and 1.7%, the “% inhibition in proliferation” value (Compound-44A 0.1694 nM, Day-3, replicate columns) was −3.1% and 4.7% and −5.4% and the “% inhibition in proliferation” value (Compound-44A 0.5081 nM, Day-3, replicate columns) was 8.2% and 0.7% and 3.1%. For the same compound, the “% inhibition in proliferation” value (Compound-44A 1.5242 nM, Day-3, replicate columns) was 1.6% and −1.5% and 5.6%, the “% inhibition in proliferation” value (Compound-44A 4.5725 nM, Day-3, replicate columns) was 5.9% and 3.4% and the “% inhibition in proliferation” value (Compound-44A 13.7174 nM, Day-3, replicate columns) was 13.0% and 12.9%. For the same compound, the “% inhibition in proliferation” value (Compound-44A 41.1523 nM, Day-3, replicate columns) was 30.9% and 25.2%, the “% inhibition in proliferation” value (Compound-44A 123.4568 nM, Day-3, replicate columns) was 56.2% and 55.9% and the “% inhibition in proliferation” value (Compound-44A 370.3704 nM, Day-3, replicate columns) was 77.9% and 80.7%. For the same compound, the “% inhibition in proliferation” value (Compound-44A 1111.1111 nM, Day-3, replicate columns) was 110.4% and 105.8%, the “% inhibition in proliferation” value (Compound-44A 3333.3333 nM, Day-3, replicate columns) was 111.8% and 110.8% and the “% inhibition in proliferation” value (Compound-44A 10000.00 nM, Day-3, replicate columns) was 106.1% and 106.3%. It also gave an inhibition at 0.0005 µM (Homo sapiens, DU-145, 72 h, Compound-44A 0.5 nM alone (docetaxel 0), checkerboard, 3 days) of 3.98%, an inhibition at 0.0045 µM (Homo sapiens, DU-145, 72 h, Compound-44A 4.5 nM alone (docetaxel 0), checkerboard, 3 days) of 4.81% and an inhibition at 0.0137 µM (Homo sapiens, DU-145, 72 h, Compound-44A 13.7 nM alone (docetaxel 0), checkerboard, 3 days) of 14.6%. The inhibition at 0.0411 µM (Homo sapiens, DU-145, 72 h, Compound-44A 41.1 nM alone (docetaxel 0), checkerboard, 3 days) was 29.1%, the inhibition at 0.1234 µM (Homo sapiens, DU-145, 72 h, Compound-44A 123.4 nM alone (docetaxel 0), checkerboard, 3 days) was 55.7% and the inhibition at 0.3703 µM (Homo sapiens, DU-145, 72 h, Compound-44A 370.3 nM alone (docetaxel 0), checkerboard, 3 days) was 77.6%. For the same compound, the inhibition at 0.0045725 µM (Homo sapiens, DU-145, Compound-44A 4.5725 nM, Day-3, replicate columns) was 5.1%, the inhibition at 0.0137174 µM (Homo sapiens, DU-145, Compound-44A 13.7174 nM, Day-3, replicate columns) was 18% and the inhibition at 0.0411523 µM (Homo sapiens, DU-145, Compound-44A 41.1523 nM, Day-3, replicate columns) was 31.2%. For the same compound, the inhibition at 0.123457 µM (Homo sapiens, DU-145, Compound-44A 123.4568 nM, Day-3, replicate columns) was 55%, the inhibition at 0.37037 µM (Homo sapiens, DU-145, Compound-44A 370.3704 nM, Day-3, replicate columns) was 74.1% and the inhibition at 1.11111 µM (Homo sapiens, DU-145, Compound-44A 1111.1111 nM, Day-3, replicate columns) was 109%. For the same compound, the inhibition at 3.33333 µM (Homo sapiens, DU-145, Compound-44A 3333.3333 nM, Day-3, replicate columns) was 112%, the inhibition at 10 µM (Homo sapiens, DU-145, Compound-44A 10000.00 nM, Day-3, replicate columns) was 107% and the “inhibition of proliferation in DU145 cells” value was “dose dependent inhibition of proliferation”.
In the case of `CC(=O)O[C@@]12CO[C@@H]1C[C@H](O)[C@@]1(C)C(=O)[C@H](O)C3=C(C)[C@@H](OC(=O)[C@H](O)[C@@H](NC(=O)OC(C)(C)C)c4ccccc4)C[C@@](O)([C@@H](OC(=O)c4ccccc4)[C@H]21)C3(C)C` [Docetaxel, docetaxel], the “% inhibition in proliferation” value (Docetaxel 0.0002 nM, Day-3, replicate columns) is reported as 1.6% and −0.5% and 3.2%, the “% inhibition in proliferation” value (Docetaxel 0.0007 nM, Day-3, replicate columns) is reported as −3.9% and −5.1% and 2.9% and the “% inhibition in proliferation” value (Docetaxel 0.0021 nM, Day-3, replicate columns) is reported as −2.5% and 1.2% and 3.4%. The “% inhibition in proliferation” value (Docetaxel 0.0188 nM, Day-3, replicate columns) was 0.8% and 0.9% and 10.0%, the “% inhibition in proliferation” value (Docetaxel 0.0565 nM, Day-3, replicate columns) was 8.8% and 16.0% and 24.0% and the “% inhibition in proliferation” value (Docetaxel 0.1694 nM, Day-3, replicate columns) was 8.3% and 2.2% and 4.1%. For the same compound, the “% inhibition in proliferation” value (Docetaxel 0.5081 nM, Day-3, replicate columns) was 15.5% and 18.3%, the “% inhibition in proliferation” value (Docetaxel 1.5242 nM, Day-3, replicate columns) was 57.5% and 59.4% and the “% inhibition in proliferation” value (Docetaxel 4.5725 nM, Day-3, replicate columns) was 98.6% and 99.2%. The “% inhibition in proliferation” value (Docetaxel 13.7174 nM, Day-3, replicate columns) was 117.2% and 114.3%, the “% inhibition in proliferation” value (Docetaxel 41.1523 nM, Day-3, replicate columns) was 123.1% and 120.5% and the “% inhibition in proliferation” value (Docetaxel 123.4568 nM, Day-3, replicate columns) was 126.0% and 122.3%. For the same compound, the “% inhibition in proliferation” value (Docetaxel 370.3704 nM, Day-3, replicate columns) was 125.0% and 123.2%, the “% inhibition in proliferation” value (Docetaxel 1111.1111 nM, Day-3, replicate columns) was 125.2% and 121.8% and the “% inhibition in proliferation” value (Docetaxel 3333.3333 nM, Day-3, replicate columns) was 124.1% and 121.7%. The “% inhibition in proliferation” value (Docetaxel 10000.00 nM, Day-3, replicate columns) was 118.3% and 117.0%, the inhibition at 200 fM (Homo sapiens, DU-145, 72 h, Docetaxel 0.0002 nM alone (Compound-44A 0), checkerboard, 3 days) was 1.42% and the inhibition at 700 fM (Homo sapiens, DU-145, 72 h, Docetaxel 0.0007 nM alone (Compound-44A 0), checkerboard, 3 days) was 0%. The inhibition at 2.1 pM (Homo sapiens, DU-145, 72 h, Docetaxel 0.0021 nM alone (Compound-44A 0), checkerboard, 3 days) was 0.69%, the inhibition at 18.8 pM (Homo sapiens, DU-145, 72 h, Docetaxel 0.0188 nM alone (Compound-44A 0), checkerboard, 3 days) was 3.89% and the inhibition at 56.5 pM (Homo sapiens, DU-145, 72 h, Docetaxel 0.0565 nM alone (Compound-44A 0), checkerboard, 3 days) was 16.3%. It also gave an inhibition at 0.0001694 µM (Homo sapiens, DU-145, 72 h, Docetaxel 0.1694 nM (Table 5: 0.17) alone (Compound-44A 0), checkerboard, 3 days) of 4.86%, an inhibition at 0.0005081 µM (Homo sapiens, DU-145, 72 h, Docetaxel 0.5081 nM (Table 5: 0.51) alone (Compound-44A 0), checkerboard, 3 days) of 15.9% and an inhibition at 0.00152 µM (Homo sapiens, DU-145, 72 h, Docetaxel 1.52 nM alone (Compound-44A 0), checkerboard, 3 days) of 55.6%. The inhibition at 0.00457 µM (Homo sapiens, DU-145, 72 h, Docetaxel 4.57 nM alone (Compound-44A 0), checkerboard, 3 days) was 97.5%, the inhibition at 0.01372 µM (Homo sapiens, DU-145, 72 h, Docetaxel 13.72 nM alone (Compound-44A 0), checkerboard, 3 days) was 116% and the inhibition at 0.04115 µM (Homo sapiens, DU-145, 72 h, Docetaxel 41.15 nM alone (Compound-44A 0), checkerboard, 3 days) was 122%. It also gave an inhibition at 0.12346 µM (Homo sapiens, DU-145, 72 h, Docetaxel 123.46 nM alone (Compound-44A 0), checkerboard, 3 days) of 125%, an inhibition at 0.37037 µM (Homo sapiens, DU-145, 72 h, Docetaxel 370.37 nM alone (Compound-44A 0), checkerboard, 3 days) of 125% and an inhibition at 1.11111 µM (Homo sapiens, DU-145, 72 h, Docetaxel 1111.11 nM alone (Compound-44A 0), checkerboard, 3 days) of 124%. The inhibition at 3.33333 µM (Homo sapiens, DU-145, 72 h, Docetaxel 3333.33 nM alone (Compound-44A 0), checkerboard, 3 days) was 123%, the inhibition at 10 µM (Homo sapiens, DU-145, 72 h, Docetaxel 10000.00 nM alone (Compound-44A 0), checkerboard, 3 days) was 118% and the inhibition at 6.3 pM (Homo sapiens, DU-145, 72 h, Docetaxel […] alone (Compound-44A 0), checkerboard, 3 days) was 0%. It also gave an inhibition at 0.0005081 µM (Homo sapiens, DU-145, Docetaxel 0.5081 nM, Day-3, replicate columns) of 14%, an inhibition at 0.0015242 µM (Homo sapiens, DU-145, Docetaxel 1.5242 nM, Day-3, replicate columns) of 49.8% and an inhibition at 0.0045725 µM (Homo sapiens, DU-145, Docetaxel 4.5725 nM, Day-3, replicate columns) of 94.6%. The inhibition at 0.0137174 µM (Homo sapiens, DU-145, Docetaxel 13.7174 nM, Day-3, replicate columns) was 115%, the inhibition at 0.0411523 µM (Homo sapiens, DU-145, Docetaxel 41.1523 nM, Day-3, replicate columns) was 123% and the inhibition at 0.123457 µM (Homo sapiens, DU-145, Docetaxel 123.4568 nM, Day-3, replicate columns) was 126%. It also gave an inhibition at 0.37037 µM (Homo sapiens, DU-145, Docetaxel 370.3704 nM, Day-3, replicate columns) of 126%, an inhibition at 1.11111 µM (Homo sapiens, DU-145, Docetaxel 1111.1111 nM, Day-3, replicate columns) of 125% and an inhibition at 3.33333 µM (Homo sapiens, DU-145, Docetaxel 3333.3333 nM, Day-3, replicate columns) of 124%. For the same compound, the inhibition at 10 µM (Homo sapiens, DU-145, Docetaxel 10000.00 nM, Day-3, replicate columns) was 119% and the “inhibition of proliferation in DU145 cells” value was “dose dependent inhibition of proliferation”.
